How the values were obtained:
B16F10 melanoma = details: BDF1 mice, B16F10 cells i.v. on day 1; compound i.v. at 100 mg/kg from day 0 to day 3; metastases counted on day 11
Method: Inhibition of the Formation of Metastases in the Mouse
The anti-tumour activity of the compounds of the invention was studied in the model of B16F10 melanoma grafted by the i.v. route. […] The parameter measured is thus the number of pulmonary metastases.
B16F1O tumour cells are injected by the i.v. route into BDF1 mice on day 1 (1 10^5 cells per mouse). The compounds are administered by the i.v. route at 100 mg/kg from day 0 to day 3 (7 animals per experimental group). On day 11, the animals are sacrificed and the pulmonary metastases are counted. The results are expressed as % inhibition compared with the control animals.

ovarian cancers = details: Becket et al., DDT 1996, 1, 16; cited from earlier work
[1] = system: rabbit cartilage collagen matrix degradation induced by IL-1β; details: read-out: IC50, collagen degradation (OH-proline release), IL-1β 10 ng/ml and plasmin 0.1 U/ml, 2 days
Method: The compounds of the invention were studied using a rabbit cartilage collagen matrix degradation model with degradation being induced by IL-1β. The tissue is placed in contact with IL -1β (10 ng/ml) and plasmin (0.1 U/ml) for 2 days. The fraction of OH-proline salted out by the tissue is evaluated by colorimetric measurement (GRANT R. A. Estimation of OH-proline by the autoanalyzer, J. Clin. Path. 1964, 17 685). The compounds of the invention were studied after the addition of various concentrations to the culture medium during the two days of the test.

Structure (SMILES): O=C(O)[C@H]1[C@H](Cn2nnc3ccccc3c2=O)CC[C@@H]1Sc1ccc(-c2ccc(Cl)cc2)cc1 (mixture of isomers) [Example 49, (1R,2S,5R)- and (1S,2R,5S)-2-[(4′-chloro-4-biphenyl)sulphanyl]-5-[(4-oxo-3,4-dihydro-1,2,3-benzotriazin-3-yl)methyl]-1-cyclopentanecarboxylic acid]
- inhibition of the formation of pulmonary metastases, % inhibition compared with the control animals (B16F10 melanoma): 73%

Structure (SMILES): CNC(=O)[C@H](Cc1ccccc1)NC(=O)[C@H](CC(C)C)[C@H](CSc1cccs1)C(=O)NO [BB94]
- anti-tumour activity in clinical use (ovarian cancers): active in ovarian cancers

Structure (SMILES): O=C(NO)C(CCn1nnc2ccccc2c1=O)CSCCc1ccc(-c2ccc(Cl)cc2)cc1 (stereo not shown) [Example 93, 2-{[2-(4′-Chloro-4-biphenyl)ethyl]sulphanylmethyl}-N-hydroxy-4-(4-oxo-3,4-dihydro-1,2,3-benzotriazin-3-yl)butyramide]
- inhibition of the formation of pulmonary metastases, % inhibition compared with the control animals (B16F10 melanoma): 75%
- IC50 [1]: 1900 nM

— US6605604B1, “Carboxylic and hydroxamic acid compounds inhibiting metalloproteases, method for preparing same and pharmaceutical compositions containing them” (Les Laboratoires Servier, priority 1998, dated 2003)
